Experimental data reported in EPA's ToxRefDB 2.

Tests used:
dog [1] = conditions: Chronic toxicity; beagle; Oral; Capsule; dose end: 52 week; group: systemic; systemic / hematology / mean corpuscular hemoglobin (mch) / mean corpuscular hemoglobin (mch) + systemic / hematology / mean corpuscular …
dog [2] = conditions: Subchronic oral toxicity in nonrodent, beagle, Capsule, dose end: 13 week, group: systemic
rat [3] = conditions: Prenatal developmental toxicity study, sprague dawley, Oral, Gavage/Intubation, dose end: 15 GD
rabbit [4] = conditions: Prenatal developmental toxicity study; new zealand white; Oral; Gavage/Intubation; dose end: 19 GD; group: maternal; systemic / in life observation / body weight / body weight gain + systemic / in life observation / clinical signs / altered breathing rate…
rat [5] = conditions: Multigenerational reproductive toxicity study, sprague dawley, Oral, Feed, dose end: 2 generation; for LEL / NEL: systemic / organ weight / liver / relative to body weight
mouse = conditions: Carcinogenicity, cd1, Oral, Feed, dose end: 80 week, group: systemic
rat [6] = conditions: Combined chronic toxicity/carcinogenicity, fischer, Oral, Feed, dose end: 104 week, group: systemic
rat [7] = conditions: Subchronic oral toxicity in rodents, fischer, Feed, dose end: 13 week, group: systemic
rat [8] = conditions: Sub-acute repeat dose toxicity, sprague dawley, Oral, Gavage/Intubation, dose end: 15 day, group: systemic
rat [9] = conditions: Fertility (Segment I), Oral, Gavage/Intubation, dose end: 1 generation
rat [10] = conditions: Sub-acute repeat dose toxicity; sprague dawley; Oral; Gavage/Intubation; dose end: 5 day; group: systemic; systemic / clinical chemistry / aspartate aminotransferase (ast/sgot) / aspartate aminotransferase (ast/sgot) + systemic / in life …
rat [11] = conditions: Prenatal developmental toxicity study, Oral, Gavage/Intubation, dose end: 18 GD
rat [12] = conditions: Chronic toxicity; sprague dawley; Oral; Gavage/Intubation; dose end: 182 day; group: systemic; systemic / clinical chemistry / [other] / [other] + systemic / clinical chemistry / cholesterol / cholesterol + systemic / clinical …
dog [13] = conditions: Sub-acute repeat dose toxicity, beagle, Oral, Gavage/Intubation, dose end: 22 day, group: systemic
rat [14] = conditions: Subchronic oral toxicity in rodents, sprague dawley, Gavage/Intubation, dose end: 93 day, group: systemic
dog [15] = conditions: Subchronic oral toxicity in nonrodent, beagle, Gavage/Intubation, dose end: 94 day, group: systemic
rat [16] = conditions: Sub-acute repeat dose toxicity; Oral; Gavage/Intubation; dose end: 36 day; group: systemic; systemic / in life observation / body weight / body weight + systemic / in life observation / food consumption / food consumption
rabbit [17] = conditions: Sub-acute repeat dose toxicity, new zealand white, Oral, Gavage/Intubation, dose end: 5 day, group: systemic
rat [18] = conditions: Prenatal developmental toxicity study, Oral, Gavage/Intubation, dose end: 21 GD
dog [19] = conditions: Chronic toxicity, beagle, Oral, Gavage/Intubation, dose end: 272 day, group: systemic
rat [20] = conditions: Sub-acute repeat dose toxicity, sprague dawley, Oral, Gavage/Intubation, dose end: 15 day, group: systemic; remark: listed apart in the source
rabbit [21] = conditions: Prenatal developmental toxicity study, Oral, Gavage/Intubation, dose end: 20 GD, group: maternal
rabbit [22] = conditions: Prenatal developmental toxicity study, Oral, Gavage/Intubation, dose end: 20 GD, group: maternal; remark: listed apart in the source
[23] = systemic / clinical chemistry / glucose / glucose + systemic / clinical chemistry / alanine aminotransferase (alt/sgpt) / alanine …
[24] = group: developmental, developmental / developmental malformation / bone / full supernumerary
[25] = group: developmental, developmental / developmental malformation / bone / full supernumerary + developmental / developmental malformation / bone / incomplete …
[26] = group: maternal, systemic / organ weight / placenta / nos
[27] = group: maternal, systemic / organ weight / placenta / nos + systemic / in life observation / body weight / body weight + systemic / in life observation / …
[28] = group: parental, systemic / in life observation / body weight / body weight gain + systemic / organ weight / liver / relative to body weight + systemic / …
[29] = systemic / clinical chemistry / protein / protein
[30] = systemic / clinical chemistry / cholesterol / cholesterol + systemic / hematology / hematocrit (hct) / hematocrit (hct) + systemic / …
[31] = systemic / hematology / hematocrit (hct) / hematocrit (hct)
[32] = systemic / clinical chemistry / [other] / [other] + systemic / clinical chemistry / cytochrome p450, nos / cytochrome p450, nos + systemic…
[33] = systemic / in life observation / body weight / body weight gain + systemic / in life observation / food consumption / food consumption + …
[34] = group: maternal, reproductive / reproductive performance / estrous cycle / corpora lutea + reproductive / reproductive performance / implantations / …
[35] = group: parental, systemic / in life observation / body weight / body weight + systemic / in life observation / body weight / body weight gain + systemic / in…
[36] = group: developmental, systemic / in life observation / body weight / fetal weight
[37] = group: maternal, systemic / in life observation / body weight / body weight gain + systemic / in life observation / clinical signs / alopecia + systemic / in…
[38] = systemic / clinical chemistry / alkaline phosphatase (alp/alk) / alkaline phosphatase (alp/alk) + systemic / in life observation / clinical …
[39] = systemic / in life observation / body weight / body weight gain + systemic / clinical chemistry / [other] / [other] + systemic / clinical …
[40] = systemic / organ weight / liver / absolute
[41] = systemic / organ weight / liver / absolute + systemic / clinical chemistry / [other] / [other] + systemic / clinical chemistry / alkaline …
[42] = systemic / in life observation / body weight / body weight + systemic / in life observation / clinical signs / altered breathing rate + …
[43] = group: maternal, systemic / in life observation / body weight / body weight gain + systemic / in life observation / food consumption / food consumption + …
[44] = systemic / in life observation / body weight / body weight + systemic / in life observation / clinical signs / alopecia + systemic / in life…
[45] = systemic / in life observation / clinical signs / altered breathing rate + systemic / in life observation / clinical signs / convulsions + …
[46] = systemic / in life observation / mortality / mortality + systemic / in life observation / body weight / body weight gain + systemic / in …

`Clc1ccc(C2(Cn3cncn3)CC(Br)CO2)c(Cl)c1` (stereo unspecified) [Bromuconazole] showed an LEL (dog [1]) of 25 mg/kg/day, an LOAEL (dog [1]) of 25 mg/kg/day and an NEL (dog [1]) of 2.5 mg/kg/day. For the same molecule, the NOAEL (dog [1]) was 2.5 mg/kg/day, the LOAEL (dog [2]; systemic / clinical chemistry / glucose / glucose) was 25 mg/kg/day and the NEL (dog [2]; [23]) was 2.5 mg/kg/day. The NOAEL (dog [2]; [23]) was 2.5 mg/kg/day, the LEL (dog [2]; systemic / clinical chemistry / glucose / glucose + systemic / organ weight / liver / relative to body weight) was 25 mg/kg/day and the LEL (rat [3]; [24]) was 70 mg/kg/day. For the same molecule, the LOAEL (rat [3]; [24]) was 70 mg/kg/day, the NEL (rat [3]; [25]) was 10 mg/kg/day and the NOAEL (rat [3]; [25]) was 10 mg/kg/day. It also gave an LEL (rat [3]; [26]) of 70 mg/kg/day, an LOAEL (rat [3]; [26]) of 70 mg/kg/day and an NEL (rat [3]; [27]) of 10 mg/kg/day. For the same molecule, the NOAEL (rat [3]; [27]) was 10 mg/kg/day, the LEL (rabbit [4]) was 50 mg/kg/day and the LOAEL (rabbit [4]) was 50 mg/kg/day. The NEL (rabbit [4]) was 12.5 mg/kg/day, the NOAEL (rabbit [4]) was 12.5 mg/kg/day and the LOAEL (rat [5]; group: offspring, systemic / in life observation / body weight / offspring (pup) weight gain) was 141 mg/kg/day. The NOAEL (rat [5]; group: offspring, systemic / in life observation / body weight / offspring (pup) weight gain + developmental / offspring survival late / viability index / …) was 13.8 mg/kg/day, the LEL (rat [5]; group: offspring) was 1.6 mg/kg/day and the NEL (rat [5]; group: offspring) was < 1.6 mg/kg/day. The LOAEL (rat [5]; [28]) was 141 mg/kg/day, the NOAEL (rat [5]; [28]) was 13.8 mg/kg/day and the LEL (rat [5]; group: parental) was 1.3 mg/kg/day. The NEL (rat [5]; group: parental) was < 1.3 mg/kg/day, the LOAEL (mouse; systemic / in life observation / body weight / body weight gain) was 113 mg/kg/day and the NOAEL (mouse; systemic / in life observation / body weight / body weight gain + systemic / pathology microscopic / liver / adenoma + systemic / organ …) was 10.8 mg/kg/day. For the same molecule, the NEL (mouse; systemic / organ weight / liver / absolute + systemic / organ weight / liver / relative to body weight + systemic / organ weight / adrenal …) was 370 mg/kg/day, the LEL (rat [6]; [29]) was 0.88 mg/kg/day and the NEL (rat [6]; [29]) was < 0.88 mg/kg/day. It also gave an LOAEL (rat [6]; systemic / pathology microscopic / liver / vacuolization) of 8.27 mg/kg/day, an NOAEL (rat [6]; systemic / pathology microscopic / liver / vacuolization + systemic / in life observation / body weight / body weight + systemic / in life …) of 1.09 mg/kg/day and an LOAEL (rat [7]; [30]) of 68.1 mg/kg/day. The NOAEL (rat [7]; [30]) was 13.8 mg/kg/day, the LEL (rat [7]; [31]) was 2.72 mg/kg/day and the NEL (rat [7]; [31]) was < 2.72 mg/kg/day.
For `COc1ccc(OC(F)(F)F)cc1CN[C@H]1CCCN[C@H]1c1ccccc1`, the LEL (rat [8]; [32]) was 100 mg/kg/day, the NEL (rat [8]; [32]) was < 100 mg/kg/day and the LOAEL (rat [8]; [33]) was > 200 mg/kg/day. The NOAEL (rat [8]; [33]) was ≥ 200 mg/kg/day, the LEL (rat [9]; [34]) was 150 mg/kg/day and the LOAEL (rat [9]; [34]) was > 150 mg/kg/day. The NEL (rat [9]; [34]) was 50 mg/kg/day, the NOAEL (rat [9]; [34]) was ≥ 150 mg/kg/day and the LOAEL (rat [9]; [35]) was > 150 mg/kg/day. The NEL (rat [9]; [35]) was 5 mg/kg/day, the NOAEL (rat [9]; [35]) was ≥ 150 mg/kg/day and the LEL (rat [9]; group: parental, systemic / in life observation / body weight / body weight gain + systemic / in life observation / clinical signs / alopecia + systemic / in…) was 50 mg/kg/day. The LEL (rat [10]) was 400 mg/kg/day, the LOAEL (rat [10]) was > 1000 mg/kg/day and the NEL (rat [10]) was < 400 mg/kg/day. For the same molecule, the NOAEL (rat [10]) was ≥ 1000 mg/kg/day, the LEL (rat [11]; [36]) was 150 mg/kg/day and the LOAEL (rat [11]; [36]) was > 150 mg/kg/day. The NOAEL (rat [11]; [36]) was ≥ 150 mg/kg/day, the LEL (rat [11]; [37]) was 75 mg/kg/day and the LOAEL (rat [11]; [37]) was > 150 mg/kg/day. For the same molecule, the NEL (rat [11]; [37]) was 15 mg/kg/day, the NOAEL (rat [11]; [37]) was ≥ 150 mg/kg/day and the LEL (rat [12]) was 30 mg/kg/day. The LOAEL (rat [12]) was > 100 mg/kg/day, the NEL (rat [12]) was 5 mg/kg/day and the NOAEL (rat [12]) was ≥ 100 mg/kg/day. The LEL (dog [13]; systemic / clinical chemistry / alkaline phosphatase (alp/alk) / alkaline phosphatase (alp/alk)) was 10 mg/kg/day, the LOAEL (dog [13]; [38]) was > 30 mg/kg/day and the NOAEL (dog [13]; [38]) was ≥ 30 mg/kg/day. For the same molecule, the LEL (rat [14]; systemic / clinical chemistry / 5' nucleotidase / 5' nucleotidase + systemic / clinical chemistry / aspartate aminotransferase (ast/sgot) / …) was 30 mg/kg/day, the LOAEL (rat [14]; [39]) was > 150 mg/kg/day and the NOAEL (rat [14]; [39]) was ≥ 150 mg/kg/day. The LEL (dog [15]; [40]) was 1 mg/kg/day, the NEL (dog [15]; [40]) was < 1 mg/kg/day and the LOAEL (dog [15]; [41]) was > 20 mg/kg/day. For the same molecule, the NOAEL (dog [15]; [41]) was ≥ 20 mg/kg/day, the LEL (rat [16]) was 50 mg/kg/day and the LOAEL (rat [16]) was > 50 mg/kg/day. The NEL (rat [16]) was 20 mg/kg/day, the NOAEL (rat [16]) was ≥ 50 mg/kg/day and the LOAEL (rabbit [17]; [42]) was > 200 mg/kg/day. For the same molecule, the NEL (rabbit [17]; [42]) was 20 mg/kg/day, the NOAEL (rabbit [17]; [42]) was ≥ 200 mg/kg/day and the LEL (rabbit [17]; systemic / in life observation / body weight / body weight + systemic / in life observation / food consumption / food consumption) was 100 mg/kg/day. The LEL (rat [18]; [36]) was 100 mg/kg/day, the LOAEL (rat [18]; [36]) was > 100 mg/kg/day and the NOAEL (rat [18]; [36]) was ≥ 100 mg/kg/day. For the same molecule, the LEL (rat [18]; [43]) was 30 mg/kg/day, the LOAEL (rat [18]; [43]) was > 100 mg/kg/day and the NEL (rat [18]; [43]) was 10 mg/kg/day. The NOAEL (rat [18]; [43]) was ≥ 100 mg/kg/day, the LOAEL (dog [19]; [38]) was > 20 mg/kg/day and the NOAEL (dog [19]; [38]) was ≥ 20 mg/kg/day. The LEL (dog [19]; systemic / in life observation / clinical signs / salivation) was 6 mg/kg/day, the LEL (rat [20]; [32]) was 50 mg/kg/day and the NEL (rat [20]; [32]) was 10 mg/kg/day. The LOAEL (rat [20]; [44]) was > 400 mg/kg/day, the NOAEL (rat [20]; [44]) was ≥ 400 mg/kg/day and the LOAEL (rabbit [21]; [45]) was > 75 mg/kg/day. For the same molecule, the NEL (rabbit [21]; [45]) was 25 mg/kg/day, the NOAEL (rabbit [21]; [45]) was ≥ 75 mg/kg/day and the LEL (rabbit [21]; systemic / in life observation / food consumption / food consumption) was 50 mg/kg/day. For the same molecule, the LEL (rabbit [22]; systemic / in life observation / mortality / mortality) was 15 mg/kg/day, the LOAEL (rabbit [22]; [46]) was > 50 mg/kg/day and the NEL (rabbit [22]; [46]) was 5 mg/kg/day. The NOAEL (rabbit [22]; [46]) was ≥ 50 mg/kg/day.
